{"source": "paper PMC6004018", "about": "“Dual-functional peptide with defective interfering genes effectively protects mice against avian and seasonal influenza” (Nature Communications, 2018)", "key": {"endosomal acidification": {"test_system": "endosomal acidification", "conditions": "cited from earlier work"}, "[1]": {"test_system": "endosomal acidification in MDCK cells", "test": "Endosomal acidification analysis in live cells", "type": "cell-based, canine", "conditions": "pHrodo Red dextran, P1 25.0 μg ml-1, TAT-P1 3.1 μg ml-1, bafilomycin A1 100.0 nM, PA1 25.0 μg ml-1"}, "A(H1N1)pdm09 virus [2]": {"test_system": "A(H1N1)pdm09 virus", "type": "cell-based"}, "A(H1N1)pdm09 virus [3]": {"test_system": "A(H1N1)pdm09 virus", "conditions": "1 h, pH 7.4"}, "A(H7N7) virus [4]": {"test_system": "A(H7N7) virus", "conditions": "1 h, pH 7.4"}, "[5]": {"test_system": "HA-mediated membrane fusion (H7N7 HA in 293T cells)", "conditions": "pH 5"}, "[6]": {"target": "viral HA protein (H1N1 glycoprotein HA1) (Influenza A virus, UniProt C3W5S1)", "sequence (C3W5S1 18-344 limits assumed)": "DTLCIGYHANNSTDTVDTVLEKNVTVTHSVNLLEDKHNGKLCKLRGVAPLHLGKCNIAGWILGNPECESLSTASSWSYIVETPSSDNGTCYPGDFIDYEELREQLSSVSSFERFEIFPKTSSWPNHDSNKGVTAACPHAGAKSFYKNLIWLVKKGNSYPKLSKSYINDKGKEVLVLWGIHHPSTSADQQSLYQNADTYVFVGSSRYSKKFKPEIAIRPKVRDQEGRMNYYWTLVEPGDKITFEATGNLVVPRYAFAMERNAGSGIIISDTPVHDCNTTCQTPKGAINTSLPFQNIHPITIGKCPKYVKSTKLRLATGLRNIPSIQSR", "conditions": "ELISA (peptide 0.1 μg per well, HA1 2 μg ml-1) and western blot (peptide 1 μg)"}, "293T cells [7]": {"test_system": "293T cells", "test": "MTT cytotoxicity assay in 293T cells", "conditions": "24 h incubation at 37 °C, DMEM with 1% FBS, three independent experiments"}, "MDCK cells": {"test_system": "MDCK cells", "test": "MTT cytotoxicity assay in MDCK cells", "conditions": "24 h incubation at 37 °C, DMEM with 1% FBS, three independent experiments"}, "293T cells [8]": {"test_system": "293T cells"}, "A(H7N7) virus [9]": {"test_system": "A(H7N7) virus", "parameters": "species or system BALB/c female mice", "conditions": "mouse, in vivo"}, "A(H1N1)pdm09 virus [10]": {"test_system": "A(H1N1)pdm09 virus", "parameters": "species or system BALB/c female mice", "conditions": "in vivo"}, "A(H1N1)pdm09 virus [11]": {"test_system": "A(H1N1)pdm09 virus", "parameters": "species or system BALB/c female mice", "conditions": "mouse, in vivo"}, "A(H7N7) virus [12]": {"test_system": "A(H7N7) virus", "type": "cell-based"}}, "note": "Where two headings read alike, the source gives them in different places. Residues, ends and D or L forms follow the SMILES beside them.", "data": [{"molecule": "CCN(CC)CCCC(C)Nc1ccnc2cc(Cl)ccc12", "note": "(centres unmarked) [chloroquine]", "values": [{"measurement": "effective concentrations for inhibiting endosomal acidification", "setting": "endosomal acidification", "value": "~ 100 μM"}]}, {"molecule": "CO/C1=C\\C(C)=C\\[C@@H](C)[C@@H](O)[C@@H](C)C/C(C)=C/C=C/[C@H](OC)[C@@H]([C@@H](C)[C@@H](O)[C@H](C)[C@@]2(O)C[C@@H](O)[C@H](C)[C@@H](C(C)C)O2)OC1=O", "note": "[Bafilomycin A1, reference compound]", "values": [{"measurement": "prevention of endosomal acidification", "setting": "[1]", "value": "prevented endosomal acidification"}, {"measurement": "block of viral RNP release into the nuclei", "setting": "A(H1N1)pdm09 virus [2]", "value": "blocked viral RNP release into the nuclei"}]}, {"molecule": "CC[C@H](C)[C@H](NC(=O)[C@H](CCCNC(=N)N)NC(=O)[C@H](CS)NC(=O)[C@H](CS)NC(=O)[C@H](CCCNC(=N)N)NC(=O)[C@@H](NC(=O)[C@H](CCCNC(=N)N)NC(=O)[C@H](Cc1ccccc1)NC(=O)[C@H](CCCNC(=N)N)NC(=O)CNC(=O)[C@H](CS)NC(=O)[C@H](CC(N)=O)NC(=O)[C@H](CCCNC(=N)N)NC(=O)[C@H](CCCCN)NC(=O)[C@H](CCCNC(=N)N)NC(=O)[C@H](Cc1ccccc1)NC(=O)[C@H](C)NC(=O)[C@H](CCCNC(=N)N)NC(=O)[C@@H]1CCCN1C(=O)[C@H](CS)NC(=O)[C@@H]1CCCN1C(=O)[C@H](CCCNC(=N)N)NC(=O)[C@H](Cc1c[nH]c2ccccc12)NC(=O)[C@H](CS)NC(=O)[C@H](CCCNC(=N)N)NC(=O)[C@H](CCCNC(=N)N)NC(=O)[C@H](CCCNC(=N)N)NC(=O)[C@H](CCC(N)=O)NC(=O)[C@H](CCCNC(=N)N)NC(=O)[C@H](CCCNC(=N)N)NC(=O)[C@H](CCCCN)NC(=O)[C@H](CCCCN)NC(=O)[C@H](CCCNC(=N)N)NC(=O)CNC(=O)[C@@H](N)Cc1ccc(O)cc1)[C@@H](C)CC)C(=O)N[C@@H](CCCNC(=N)N)C(=O)O", "note": "[TAT-P2] (H-YGRKKRRQRRRCWRPCPRAFRKRNCGRFRIRCCRIR-OH; N-terminus and C-terminus assumed)", "values": [{"measurement": "IC50 (H1N1)", "setting": "A(H1N1)pdm09 virus [3]", "value": 0.76, "unit": "µg/mL"}, {"measurement": "IC50 (H7N7)", "setting": "A(H7N7) virus [4]", "value": 0.97, "unit": "µg/mL"}]}, {"molecule": "CC[C@H](C)[C@H](NC(=O)[C@H](CCCNC(=N)N)NC(=O)[C@H](CS)NC(=O)[C@H](CCCNC(=N)N)NC(=O)[C@@H](NC(=O)[C@H](CCCNC(=N)N)NC(=O)[C@H](Cc1ccccc1)NC(=O)[C@H](CCCNC(=N)N)NC(=O)CNC(=O)[C@H](CS)NC(=O)[C@H](CC(C)C)NC(=O)[C@H](CCC(N)=O)NC(=O)[C@H](CCCNC(=N)N)NC(=O)[C@H](Cc1ccccc1)NC(=O)[C@H](CO)NC(=O)[C@@H]1CCCN1C(=O)[C@H](CS)NC(=O)[C@@H]1CCCN1C(=O)[C@H](CCCNC(=N)N)NC(=O)[C@H](Cc1c[nH]c2ccccc12)NC(=O)[C@H](CS)NC(=O)[C@H](CCCNC(=N)N)NC(=O)[C@H](CCCNC(=N)N)NC(=O)[C@H](CCCNC(=N)N)NC(=O)[C@H](CCC(N)=O)NC(=O)[C@H](CCCNC(=N)N)NC(=O)[C@H](CCCNC(=N)N)NC(=O)[C@H](CCCCN)NC(=O)[C@H](CCCCN)NC(=O)[C@H](CCCNC(=N)N)NC(=O)CNC(=O)[C@@H](N)Cc1ccc(O)cc1)[C@@H](C)CC)C(=O)N[C@@H](CCCNC(=N)N)C(=O)O", "note": "[TAT-P3] (H-YGRKKRRQRRRCWRPCPSFRQLCGRFRIRCRIR-OH; N-terminus and C-terminus assumed)", "values": [{"measurement": "IC50 (H1N1)", "setting": "A(H1N1)pdm09 virus [3]", "value": 0.68, "unit": "µg/mL"}, {"measurement": "IC50 (H7N7)", "setting": "A(H7N7) virus [4]", "value": 0.78, "unit": "µg/mL"}]}, {"molecule": "CC[C@H](C)[C@H](NC(=O)[C@H](CCC(N)=O)NC(=O)[C@H](CCCNC(=N)N)NC(=O)[C@H](Cc1ccccc1)NC(=O)[C@H](C)NC(=O)[C@@H](NC(=O)[C@@H]1CCCN1C(=O)[C@H](CS)NC(=O)[C@@H]1CCCN1C(=O)CNC(=O)[C@H](Cc1c[nH]c2ccccc12)NC(=O)[C@@H](N)CS)[C@@H](C)O)C(=O)NCC(=O)N[C@@H](CC(N)=O)C(=O)N[C@@H](CS)C(=O)NCC(=O)N[C@@H](CCCNC(=N)N)C(=O)N[C@@H](Cc1ccccc1)C(=O)N[C@@H](CCCNC(=N)N)C(=O)N[C@H](C(=O)N[C@@H](CCCNC(=N)N)C(=O)N[C@@H](CS)C(=O)N[C@@H](CS)C(=O)N[C@@H](CCCNC(=N)N)C(=O)N[C@H](C(=O)N[C@@H](CCCNC(=N)N)C(=O)O)[C@@H](C)CC)C(C)C", "note": "[P1] (H-CWGPCPTAFRQIGNCGRFRVRCCRIR-OH)", "values": [{"measurement": "inhibition of viral replication in 293T cells", "setting": "H7N7 virus", "value": "significantly inhibit viral replication"}, {"measurement": "prevention of endosomal acidification", "setting": "[1]", "value": "prevented endosomal acidification"}, {"measurement": "inhibition of HA-mediated membrane fusion", "setting": "[5]", "value": "did not inhibit HA-mediated membrane fusion"}, {"measurement": "binding to viral HA protein", "setting": "[6]", "value": "bind to viral HA protein"}, {"measurement": "CC50 (293T)", "setting": "293T cells [7]", "value": "> 400", "unit": "µg/mL"}, {"measurement": "CC50 (MDCK)", "setting": "MDCK cells", "value": "> 400", "unit": "µg/mL"}, {"measurement": "block of viral RNP release into the nuclei", "setting": "A(H1N1)pdm09 virus [2]", "value": "blocked viral RNP release into the nuclei"}, {"measurement": "concentration that significantly enhances the transfection efficiency of plasmid DNA", "setting": "293T cells [8]", "value": 12.5}, {"measurement": "IC50 (H7N7)", "setting": "A(H7N7) virus [4]", "value": 1.56, "unit": "µg/mL"}]}, {"molecule": "CC[C@H](C)[C@H](NC(=O)[C@H](CCC(N)=O)NC(=O)[C@H](CCCNC(=N)N)NC(=O)[C@H](Cc1ccccc1)NC(=O)[C@H](C)NC(=O)[C@@H](NC(=O)[C@@H]1CCCN1C(=O)[C@H](CS)NC(=O)[C@@H]1CCCN1C(=O)CNC(=O)[C@H](Cc1c[nH]c2ccccc12)NC(=O)[C@H](CS)NC(=O)[C@H](CCCNC(=N)N)NC(=O)[C@H](CCCNC(=N)N)NC(=O)[C@H](CCCNC(=N)N)NC(=O)[C@H](CCC(N)=O)NC(=O)[C@H](CCCNC(=N)N)NC(=O)[C@H](CCCNC(=N)N)NC(=O)[C@H](CCCCN)NC(=O)[C@H](CCCCN)NC(=O)[C@H](CCCNC(=N)N)NC(=O)CNC(=O)[C@@H](N)Cc1ccc(O)cc1)[C@@H](C)O)C(=O)NCC(=O)N[C@@H](CC(N)=O)C(=O)N[C@@H](CS)C(=O)NCC(=O)N[C@@H](CCCNC(=N)N)C(=O)N[C@@H](Cc1ccccc1)C(=O)N[C@@H](CCCNC(=N)N)C(=O)N[C@H](C(=O)N[C@@H](CCCNC(=N)N)C(=O)N[C@@H](CS)C(=O)N[C@@H](CS)C(=O)N[C@@H](CCCNC(=N)N)C(=O)N[C@H](C(=O)N[C@@H](CCCNC(=N)N)C(=O)O)[C@@H](C)CC)C(C)C", "note": "[TAT-P1] (H-YGRKKRRQRRRCWGPCPTAFRQIGNCGRFRVRCCRIR-OH)", "values": [{"measurement": "weight ratio (peptide:DNA) at which complexes with DNA form", "setting": "plasmid DNA", "value": "> 2"}, {"measurement": "inhibition of viral replication in 293T cells", "setting": "H7N7 virus", "value": "significantly inhibit viral replication"}, {"measurement": "survival", "setting": "A(H7N7) virus [9]", "value": 30, "unit": "%"}, {"measurement": "prevention of endosomal acidification", "setting": "[1]", "value": "prevented endosomal acidification"}, {"measurement": "inhibition of HA-mediated membrane fusion", "setting": "[5]", "value": "did not inhibit HA-mediated membrane fusion"}, {"measurement": "binding to viral HA protein", "setting": "[6]", "value": "bind to viral HA protein"}, {"measurement": "block of viral RNP release into the nuclei", "setting": "A(H1N1)pdm09 virus [2]", "value": "blocked viral RNP release into the nuclei"}, {"measurement": "IC50 (H1N1)", "setting": "A(H1N1)pdm09 virus [3]", "value": 0.67, "unit": "µg/mL"}, {"measurement": "IC50 (H7N7)", "setting": "A(H7N7) virus [4]", "value": 0.56, "unit": "µg/mL"}]}, {"molecule": "CC(=O)N[C@H]1[C@H]([C@H](O)[C@H](O)CO)OC(C(=O)O)=C[C@@H]1N=C(N)N", "note": "[zanamivir]", "values": [{"measurement": "viral titers / viral replication in mouse lungs", "setting": "A(H1N1)pdm09 virus [10]", "value": "significantly reduced"}, {"measurement": "IL-6 expression in mice", "setting": "A(H1N1)pdm09 virus [10]; mouse", "value": "significantly reduced"}, {"measurement": "body weight loss", "setting": "A(H1N1)pdm09 virus [10]; mouse", "value": "significantly reduced"}, {"measurement": "survival", "setting": "A(H1N1)pdm09 virus [10]; mouse", "value": 90, "unit": "%"}, {"measurement": "body weight loss", "setting": "A(H7N7) virus [9]", "value": "significantly less body weight loss"}, {"measurement": "survival", "setting": "A(H7N7) virus [9]", "value": 40, "unit": "%"}, {"measurement": "survival", "setting": "A(H1N1)pdm09 virus [11]", "value": 90, "unit": "%"}, {"measurement": "susceptibility of virus to zanamivir", "setting": "A(H7N7) virus [12]", "value": "reduced susceptibility"}]}, {"molecule": "N=C(N)NCCC[C@H](NC(=O)[C@H](CCCNC(=N)N)NC(=O)[C@H](CCCNC(=N)N)NC(=O)[C@H](CCC(N)=O)NC(=O)[C@H](CCCNC(=N)N)NC(=O)[C@H](CCCNC(=N)N)NC(=O)[C@H](CCCCN)NC(=O)[C@H](CCCCN)NC(=O)[C@H](CCCNC(=N)N)NC(=O)CNC(=O)[C@@H](N)Cc1ccc(O)cc1)C(=O)O", "note": "[TAT, reference compound]", "values": [{"measurement": "CC50 (293T)", "setting": "293T cells [7]", "value": "> 400", "unit": "µg/mL"}, {"measurement": "CC50 (MDCK)", "setting": "MDCK cells", "value": "> 400", "unit": "µg/mL"}]}]}
